Patent publication US20240408125A1, “COMPOSITION COMPRISING POLYGALATENOSIDE AS ACTIVE INGREDIENT FOR PREVENTION OR TREATMENT OF CANCER” (HOSEO UNIVERSITY ACADEMIC COOPERATION FOUNDATION, priority 2021, published 2024)

What was measured:
Type in all cases: cell-based, Mouse
B16-F10 melanoma cells [1] = experiment: WST8 cell viability assay; conditions: 3 μM for 48 hours, WST8, absorbance at 450 nm, FIG. 3
Description: (§1) B16-F10 melanoma cells were cultured under conditions of 36.5° C. and 5% CO2 using a Dulbecco's modified Eagle's medium supplemented with 10% (v/v) fetal bovine serum and 1% (v/v) penicillin-streptomycin.
B16-F10 melanoma cells were cultured in a 96-well cell culture plate for 12 hours, and then treated with polygalatenoside A at concentrations of 0, 0.1, 0.3, 1, 3, and 10 μM for 48 hours, respectively. The medium was treated with a WST8 Cell Viability Assay Reagent to a concentration of 10% (v/v) and cultured for 2 hours. Thereafter, cell viability was confirmed by measuring absorbance at 450 nm using a microplate reader, and the results were shown in FIG. 3.

NOX2 protein = NOX2 protein expression by Western blot with densitometry relative to β-actin; conditions: B16-F10 cells, FIG. 2
Description: as §1
B16-F10 melanoma cells were cultured for 12 hours, and then treated with polygalatenoside A at concentrations of 0, 0.1, 0.3, 1, 3, and 10 μM for 24 hours, respectively. Thereafter, the cells were washed twice with PBS, and collected, and proteins were recovered by lysing the cells with a radioimmunoprecipitation assay (RIPA) buffer containing phenylmethylsulfonyl fluoride (PMSF). 50 μg of proteins was separated by sodium dodecyl sulfate poly-acrylamide gel electrophoresis (SDS-PAGE) and then transferred to a polyvinylidene fluoride (PVDF) membrane. The membrane was treated with a tris-buffered saline (TBS; pH 7.6) containing 5% (w/v) skim milk, 0.05% (v/v) tween-20, and 0.01% (w/v) sodium azide at 25° C. for 1 hour. The membrane was washed three times with TBST (TBS containing 0.05% (v/v) tween-20) and treated with an anti-NOX2 primary antibody and a horse radish peroxidase (HRP)-conjugated secondary antibody. The protein levels were visualized using enhanced chemiluminescence (ECL) and an X-ray film. The expression level of NOX2 protein compared to β-actin was shown in FIG. 2 through a densitometry of ImageJ software.

B16-F10 melanoma cells [2] = experiment: Viable cell number by trypan blue staining and hemocytometer; conditions: FIG. 4
Description: as §1
Next, in order to measure changes in cell number, B16-F10 cells were cultured for 12 hours, and then treated with polygalatenoside A at concentrations of 0, 0.1, 0.3, 1, 3, and 10 μM for 72 hours, respectively. The cells were collected every 24 hours, stained with trypan blue, and the number of viable cells was measured using a hemocytometer, and the results were shown in FIG. 4.

**Q.** How did the “cell viability (cell death effect)” value (B16-F10 melanoma cells [1]) turn out when O=C(OCC1OC(OC2COC(CO)[C@@H](O)C2O)C(O)C(O)C1O)c1ccccc1 (some centres unmarked) [polygalatenoside A, Polygalatenoside A] was run?
**A.** The value was “cell death effect was exhibited”.

**Q.** And the “expression of NOX2 compared to untreated control group (fold)” value (NOX2 protein; 3 μM for 24 hours)?
**A.** Its value is “about 1.4 times”.

**Q.** And the “expression of NOX2 compared to untreated control group” value (NOX2 protein; 0.1-10 μM for 24 hours)?
**A.** The value was “increased”.

**Q.** And the “growth inhibition effect (number of viable cells)” value (B16-F10 melanoma cells [2]; 3 μM up to 72 hours, compared with the other concentrations)?
**A.** Its value is “most significantly shown”.

**Q.** And the “growth of melanoma cells (number of viable cells)” value (B16-F10 melanoma cells [2]; 0.1-10 μM up to 72 hours, counted every 24 hours)?
**A.** Its value is “inhibited”.
